Results as given in EP0517262A1, “Trifluorothymidine derivatives, process for producing the same and anti-cancer agent containing the same” (priority 1991, dated 1992).

How the values were obtained:
[1] = Pharmacological Test 1: body weight change of the tumor-bearing mice; conditions: day 1 - day 7, female CDF1 mice with Meth A fibrosarcoma
From the text: (§1) Female CDF₁ mice of 6 weeks old were used. As the tumor, Meth A fibrosarcoma was used.
(§2) To the right abdomen of each mouse, 2 x 10⁶ tumor cells were subcutaneously transplanted. On the next day (day 1), the mice were randomly grouped and the suspension was compulsively administered to the mice by using an oral sound for successive 7 days (day 1 - day 7).

Meth A fibrosarcoma = assay: Pharmacological Test 1 (anti-cancer activity): tumor weight ratio T/C of subcutaneously transplanted tumor; format: in vivo, mice; conditions: Mus musculus, 336 h
Method: as §1, §2
On day 14, the tumors were removed and weighed. The tumor growth ratio (%) was calculated according to the following equation: Tumor Growth Ratio (%) = T/C x 100 [formula] wherein T means the average weight of tumor of the treated group and C means the average weight of tumor of the control group.

adenocarcinoma-755 = conditions: experimental model tumor; Cancer Research, Vol. 24, p.1979, 1964; cited from earlier work
[2] = cited from earlier work
L1210 leukemia = conditions: experimental model tumor; Cancer Research, Vol. 24, p.1979, 1964; cited from earlier work
[3] = po, read-out: Tumor Weight Ratio (T/C : %)

C#CCO[C@H]1C[C@H](n2cc(C(F)(F)F)c(=O)[nH]c2=O)O[C@@H]1COC(=O)CCCCCCCCCCCCCCCCC [Example 29]
Body Weight Change ([1]; 18.0 mg/kg oral): -1.2 g | Body Weight Change ([1]; 71.9 mg/kg oral): -6.9 g | response vs control in vivo at 18 mg/kg (Meth A fibrosarcoma; 18.0 mg/kg oral, day 1 - day 7, tumors weighed on day 14): 52% | response vs control in vivo at 71.9 mg/kg (Meth A fibrosarcoma; 71.9 mg/kg oral, day 1 - day 7, tumors weighed on day 14): 21%

C#CCO[C@H]1C[C@H](n2cc(C(F)(F)F)c(=O)[nH]c2=O)O[C@@H]1COC(=O)[C@@H]1CCCN1CCCCCCCCCCCC.Cl [Example 14, 5'-O-(N-dodecyl-L-prolyl)-3'-O-propargyl-α,α,α-trifluorothymidine hydrochloride]
Body Weight Change ([1]; 38.0 mg/kg oral): -0.2 g | Body Weight Change ([1]; 76.0 mg/kg oral): -4.7 g | response vs control in vivo at 38 mg/kg (Meth A fibrosarcoma; 38.0 mg/kg oral, day 1 - day 7, tumors weighed on day 14): 32% | response vs control in vivo at 76 mg/kg (Meth A fibrosarcoma; 76.0 mg/kg oral, day 1 - day 7, tumors weighed on day 14): 15%

C#CCO[C@H]1C[C@H](n2cc(C(F)(F)F)c(=O)[nH]c2=O)O[C@@H]1CO[Si](C)(C)C(C)(C)C [Example 1, 5'-O-(t-butyldimethylsilyl)-3'-O-propargyl-α,α,α-trifluorothymidine]
Body Weight Change ([1]; 13.4 mg/kg oral): -0.3 g | Body Weight Change ([1]; 53.7 mg/kg oral): -4.9 g | response vs control in vivo at 13.4 mg/kg (Meth A fibrosarcoma; [3]): 67% | response vs control in vivo at 53.7 mg/kg (Meth A fibrosarcoma; [3]): 33%

O=c1[nH]c(=O)n([C@H]2C[C@H](O)[C@@H](CO)O2)cc1C(F)(F)F [Example F3Thd, Trifluorothymidine]
anti-tumor activity (adenocarcinoma-755): excellent anti-tumor activity | metabolism in the body ([2]; in vivo): rapidly metabolized in the body | absorption when administered orally ([2]; oral administration): not well absorbed when administered orally | anti-tumor activity (L1210 leukemia): excellent anti-tumor activity

C#CCO[C@H]1C[C@H](n2cc(C(F)(F)F)c(=O)n(C(=O)c3ccco3)c2=O)O[C@@H]1CO [Example 47]
Body Weight Change ([1]; 25.6 mg/kg oral): 0.7 g | Body Weight Change ([1]; 76.9 mg/kg oral): -4.4 g | response vs control in vivo at 25.6 mg/kg (Meth A fibrosarcoma; 25.6 mg/kg oral, day 1 - day 7, tumors weighed on day 14): 90.3% | response vs control in vivo at 76.9 mg/kg (Meth A fibrosarcoma; 76.9 mg/kg oral, day 1 - day 7, tumors weighed on day 14): 21.7%

C#CCO[C@H]1C[C@H](n2cc(C(F)(F)F)c(=O)[nH]c2=O)O[C@@H]1CO[Si](CC)(CC)CC [Example 13, 5'-O-(triethylsilyl)-3'-O-propargyl-α,α,α-trifluorothymidine]
Body Weight Change ([1]; 27.0 mg/kg oral): 0.8 g | Body Weight Change ([1]; 54.0 mg/kg oral): -2.9 g | response vs control in vivo at 27 mg/kg (Meth A fibrosarcoma; [3]): 57% | response vs control in vivo at 54 mg/kg (Meth A fibrosarcoma; [3]): 37%

C#CCO[C@H]1C[C@H](n2cc(C(F)(F)F)c(=O)[nH]c2=O)O[C@@H]1COC(=O)CN1CCN(CCCCCCCCC)CC1.Cl.Cl [Example 11, 5'-O-{2-(4-nonylpiperazin-1-yl)acetyl}-3'-O-propargyl-α,α,α-trifluorothymidine dihydrochloride]
Body Weight Change ([1]; 37.0 mg/kg oral): 0.6 g | Body Weight Change ([1]; 75.0 mg/kg oral): -2.7 g | response vs control in vivo at 37 mg/kg (Meth A fibrosarcoma; 37.0 mg/kg oral, day 1 - day 7, tumors weighed on day 14): 58% | response vs control in vivo at 75 mg/kg (Meth A fibrosarcoma; 75.0 mg/kg oral, day 1 - day 7, tumors weighed on day 14): 31%

C#CCO[C@H]1C[C@H](n2cc(C(F)(F)F)c(=O)[nH]c2=O)O[C@@H]1CO [Example 2, 3'-O-propargyl-α,α,α-trifluorothymidine]
Body Weight Change ([1]; 17.3 mg/kg oral): -0.5 g | Body Weight Change ([1]; 51.9 mg/kg oral): -4.9 g | response vs control in vivo at 17.3 mg/kg (Meth A fibrosarcoma; 17.3 mg/kg oral, day 1 - day 7, tumors weighed on day 14): 16.6% | response vs control in vivo at 51.9 mg/kg (Meth A fibrosarcoma; 51.9 mg/kg oral, day 1 - day 7, tumors weighed on day 14): 7.7%

C#CCO[C@H]1C[C@H](n2cc(C(F)(F)F)c(=O)[nH]c2=O)O[C@@H]1CO[Si](C)(C)C(C)C [Example 7, 5'-O-isopropyldimethylsilyl-3'-O-propargyl-α,α,α-trifluorothymidine]
Body Weight Change ([1]; 26.0 mg/kg oral): -0.2 g | Body Weight Change ([1]; 52.0 mg/kg oral): -4.0 g | response vs control in vivo at 26 mg/kg (Meth A fibrosarcoma; [3]): 38% | response vs control in vivo at 52 mg/kg (Meth A fibrosarcoma; [3]): 25%

C#CCO[C@H]1C[C@H](n2cc(C(F)(F)F)c(=O)n(C(=O)c3ccccc3)c2=O)O[C@@H]1CO [Example 6, 3-benzoyl-3'-O-propargyl-α,α,α-trifluorothymidine]
Body Weight Change ([1]; 22.7 mg/kg oral): -3.8 g | Body Weight Change ([1]; 68.1 mg/kg oral): -4.7 g | response vs control in vivo at 22.7 mg/kg (Meth A fibrosarcoma; 22.7 mg/kg oral, day 1 - day 7, tumors weighed on day 14): 28.3% | response vs control in vivo at 68.1 mg/kg (Meth A fibrosarcoma; 68.1 mg/kg oral, day 1 - day 7, tumors weighed on day 14): 2.6%

C#CCO[C@H]1C[C@H](n2cc(C(F)(F)F)c(=O)n(C(=O)c3ccc(OC)cc3)c2=O)O[C@@H]1CO [Example 45]
Body Weight Change ([1]; 28.0 mg/kg oral): 1.3 g | Body Weight Change ([1]; 84.1 mg/kg oral): -4.5 g | response vs control in vivo at 28 mg/kg (Meth A fibrosarcoma; 28.0 mg/kg oral, day 1 - day 7, tumors weighed on day 14): 64.6% | response vs control in vivo at 84.1 mg/kg (Meth A fibrosarcoma; 84.1 mg/kg oral, day 1 - day 7, tumors weighed on day 14): 6.9%
